From ChEMBL document CHEMBL2396569, “6'-Methyl-5'-homoaristeromycin: a structural variation of the anti-orthopox virus candidate 5'-homoaristeromycin” (Bioorg Med Chem, 2013)
Calls of active or inactive are those of the source. The rule behind the calls is not given here.

Columns and labels:
[1] = Cytotoxicity against african green monkey Vero 76 cells after 3 days by neutral red uptake assay; type: cell-based; details: chlorocebus sabaeus
Cowpox virus = experiment: Antiviral activity against Cowpox virus infected in african green monkey Vero 76 cells assessed as inhibition of virus-induced cytopathic effect after 3 days by microscopic analysis; type: functional, organism-based; details: 72 h
Vaccinia virus = experiment: Antiviral activity against Vaccinia virus infected in african green monkey Vero 76 cells assessed as inhibition of virus-induced cytopathic effect after 3 days by microscopic analysis; type: functional, organism-based; details: Orthopoxvirus vaccinia, 72 h
Punta Toro virus = experiment: Antiviral activity against Punta Toro virus; type: functional, organism-based
Human betaherpesvirus 5 = experiment: Antiviral activity against Human cytomegalovirus; type: functional, organism-based
Yellow fever virus = experiment: Antiviral activity against Yellow fever virus; type: functional, organism-based
Enterovirus = experiment: Antiviral activity against Rhinovirus; type: functional, organism-based
[2] = system: Venezuelan equine encephalitis virus; experiment: Antiviral activity against Venezuelan equine encephalitis virus; type: functional, organism-based
Influenza A virus [3] = experiment: Antiviral activity against Influenza A virus H1N1; type: functional, organism-based
Dengue virus = experiment: Antiviral activity against Dengue virus; type: functional, organism-based
Influenza B virus = experiment: Antiviral activity against Influenza B virus; type: functional, organism-based
Measles morbillivirus = experiment: Antiviral activity against Measles virus; type: functional, organism-based
Reovirus sp. = experiment: Antiviral activity against Reovirus; type: functional, organism-based
Feline coronavirus = experiment: Antiviral activity against Feline coronavirus; type: functional, organism-based
[4] = Cytotoxicity against human Daudi cells after 3 days by neutral red uptake assay; type: cell-based
Pichinde virus = experiment: Antiviral activity against Pichinde virus; type: functional, organism-based
Coxsackievirus B4 = experiment: Antiviral activity against Human coxsackievirus B4; type: functional, organism-based
Human alphaherpesvirus 2 = experiment: Antiviral activity against Herpes simplex virus 2; type: functional, organism-based
[5] = system: Respiratory syncytial virus; experiment: Antiviral activity against Respiratory syncytial virus; type: functional, organism-based
Influenza A virus [6] = experiment: Antiviral activity against Influenza A virus H3N2; type: functional, organism-based
[7] = Cytotoxicity against human HEL cells after 3 days by neutral red uptake assay; type: cell-based
unidentified adenovirus = experiment: Antiviral activity against Adenovirus; type: functional, organism-based
Human alphaherpesvirus 1 = experiment: Antiviral activity against Herpes simplex virus 1; type: functional, organism-based
[8] = system: unidentified human coronavirus; experiment: Antiviral activity against Human coronavirus; type: functional
Hepatitis C virus = experiment: Antiviral activity against Hepatitis C virus; type: functional, organism-based; details: Hepacivirus hominis
Human alphaherpesvirus 3 = experiment: Antiviral activity against Varicella zoster virus; type: functional, organism-based
[9] = system: Vesicular stomatitis virus; experiment: Antiviral activity against Vesicular stomatitis virus infected in human HEL cells assessed as inhibition of virus-induced cytopathic effect after 3 days by microscopic analysis; type: functional, organism-based; details: 72 h
Human gammaherpesvirus 4 = experiment: Antiviral activity against Epstein Barr virus infected in human Daudi cells assessed as inhibition of virus-induced cytopathic effect after 3 days by microscopic analysis; type: functional, organism-based; details: human gammaherpesvirus 4, Daudi, 72 h
West Nile virus = experiment: Antiviral activity against West Nile virus; type: functional, organism-based
Human respirovirus 3 = experiment: Antiviral activity against Human parainfluenza virus 3; type: functional, organism-based
Sindbis virus = experiment: Antiviral activity against Sindbis virus; type: functional, organism-based
Hepatitis B virus = experiment: Antiviral activity against Hepatitis B virus; type: functional, organism-based

Nc1ncnc2c1ncn2[C@@H]1C[C@H](CCO)[C@@H](O)[C@H]1O
CC50 at 72 h [1]: > 300 µM
IC50 (Cowpox virus): 0.49 µM
IC50 (Vaccinia virus): 4.29 µM

C[C@@H](O)C[C@H]1C[C@@H](n2cnc3c(N)ncnc32)[C@H](O)[C@@H]1O (mixture of isomers)
Activity (Punta Toro virus): inactive
Activity (Human betaherpesvirus 5): inactive
Activity (Yellow fever virus): inactive
Activity (Enterovirus): inactive
Activity [2]: inactive
Activity (Influenza A virus [3]): inactive
Activity (Dengue virus): inactive
Activity (Influenza B virus): inactive
Activity (Measles morbillivirus): inactive
CC50 at 72 h [1]: > 300 µM
Activity (Reovirus sp.): inactive
Activity (Feline coronavirus): inactive
IC50 (Cowpox virus): 223 µM
CC50 at 72 h [4]: > 300 µM
Activity (Pichinde virus): inactive
Activity (Coxsackievirus B4): inactive
Activity (Human alphaherpesvirus 2): inactive
Activity [5]: inactive
Activity (Influenza A virus [6]): inactive
CC50 at 72 h [7]: > 300 µM
Activity (unidentified adenovirus): inactive
IC50 (Vaccinia virus): 24 µM
Activity (Human alphaherpesvirus 1): inactive
Activity [8]: inactive
Activity (Hepatitis C virus): inactive
Activity (Human alphaherpesvirus 3): inactive
IC50 [9]: 4.8 µM
IC50 (Human gammaherpesvirus 4): 6.6 µM
Activity (West Nile virus): inactive
Activity (Human respirovirus 3): inactive
Activity (Sindbis virus): inactive
Activity (Hepatitis B virus): inactive

C[C@H](O)C[C@H]1C[C@@H](n2cnc3c(N)ncnc32)[C@H](O)[C@@H]1O (mixture of isomers)
Activity (Punta Toro virus): inactive
Activity (Human betaherpesvirus 5): inactive
Activity (Yellow fever virus): inactive
Activity (Enterovirus): inactive
Activity [2]: inactive
Activity (Influenza A virus [3]): inactive
Activity (Dengue virus): inactive
Activity (Influenza B virus): inactive
Activity (Measles morbillivirus): inactive
CC50 at 72 h [1]: > 300 µM
Activity (Reovirus sp.): inactive
Activity (Feline coronavirus): inactive
IC50 (Cowpox virus): 164 µM
CC50 at 72 h [4]: > 300 µM
Activity (Pichinde virus): inactive
Activity (Coxsackievirus B4): inactive
Activity (Human alphaherpesvirus 2): inactive
Activity [5]: inactive
Activity (Influenza A virus [6]): inactive
CC50 at 72 h [7]: > 300 µM
Activity (unidentified adenovirus): inactive
IC50 (Vaccinia virus): 4.8 µM
Activity (Human alphaherpesvirus 1): inactive
Activity [8]: inactive
Activity (Hepatitis C virus): inactive
Activity (Human alphaherpesvirus 3): inactive
IC50 [9]: 1.6 µM
IC50 (Human gammaherpesvirus 4): 6.4 µM
Activity (West Nile virus): inactive
Activity (Human respirovirus 3): inactive
Activity (Sindbis virus): inactive
Activity (Hepatitis B virus): inactive
